{
  "source": "patent US20250144187A1",
  "about": "“COMBINATION OF HYDROLASES AND ANTI-MICROORGANISM DRUGS AND USES THEREOF” (CENTRE FOR EYE AND VISION RESEARCH LIMITED, priority 2023, published 2025)",
  "key": {"ARPE-19 cells": {"system": "ARPE-19 cells", "assay_type": "cell-based", "settings": "human, 24 h", "method": "14) Toxicities analysis on lysozyme and cefdinir. Toxicities analysis of lysozyme and cefdinir were performed on ARPE-19 and 293T cells [Guo H et al., ACS Chem Biol 17, 2003-2009 (2022)]. Drugs at different concentrations were added into the plates, in which cells had 80% confluency. Those without any drug's treatment served as control group. Ater 24 hours culture at 37° C., survival cells were counted by using CCK-8 kit, 100% survival ratio (no toxicity) was defined as those had same number of survival cells in control group."}, "MRSA [1]": {"system": "MRSA", "assay": "Time-killing curves, cefdinir/lysozyme", "assay_type": "cell-based, Staphylococcus aureus", "settings": "0.5 mg/ml lysozyme + 0.5 μg/ml cefdinir, after 16 hours; reduced from the level of 10^10", "method": "3) Time-killing curves. According to standard method [Thappeta K R V et al., ACS Infect Dis 6, 1228-1237 (2020)], over-night cultured MRSA was diluted and aliquoted into new sterile 50 ml tubes at 1:1000 ratio. Then, the bacterial suspension was cultured in LB medium containing 0.5 or 2.0 μg/ml cefdinir, 0.5 mg/ml lysozyme or their combination at 37° C. with shaking at 250 rpm. Bacterial suspension without any drugs served as control group. To measure their kinetic time-killing curves, twenty micro liters of each culture was extracted at time intervals of 0, 2, 4, 6, 9 and 16 h for measurement of the OD600 and colony-forming units. Ten micro liters of each dilution was spotted on the LB-agar plates and incubated at 37° C. for 24 hours prior to enumeration. All assays were performed in triplicate."}, "MRSA [2]": {"system": "MRSA", "assay": "Antibiotics accumulation analysis (LC-MS/MS)", "assay_type": "cell-based, Staphylococcus aureus", "method": "11) Antibiotics accumulation analysis. The accumulation of antibiotics in MRSA was determined by LC-MS/MS analysis according to a previous report [Liu, Y et al., Adv. Sci. 7. 1902227 (2020); Ong, V et al., Drug Metab. Dispos, 4127 (2014); Richter, M. F et al., Nature 545, 299-304 (2017)]. Briefly, 1.0 ml of overnight culture of MRSA was diluted into […] of fresh LB medium and cultured at 37° C. with shaking at 250 rpm until when bacteria OD600 was about 0.4. Then, tedizolid phosphate (0.5 μg/ml) in combination with varying lysozyme (0, 0.25, 0.5 and 1.0 mg/ml) was added. After that, all samples were further cultured at 37° C. with shaking at 250 rpm for 0.5, 1.0, 2.0 or 4 hours, respectively. Then, all bacteria were pelleted by centrifuging at 13 000 g for 20 minutes. To lyse the bacteria, each pellet was dissolved in 400 μl of lysis buffer (150 mM NaCl, 1% Triton-X100, 1× proteinase inhibitor and 50 mM HEPES-Na, pH 8.0) and then subjected to sonication lysis, followed by three freeze-thaw cycles in liquid nitrogen. The lysates were pelleted at 13 000 g for 20 minutes and the supernatants were collected. All debris were re-suspended in 400 μl of methanol and pelleted as before, followed by 400 μl of acetonitrile treatment as before. These supernatants were combined with the previously collected supernatants, Residual debris was removed by centrifuging at 13 000 g for 20 minutes. Supernatants were analyzed by an Agilent 1260 Infinity HPLC system coupled to AD SCIEX QTRAP 6500 mass spectrometers (ABSciex, CA, USA). The liquid chromatography separation was performed on water HSS T3 column (2.1×100 mm, 3 μm) with mobile phase A (20 mM ammonium formate in water) and mobile phase B (methanol). The flow rate was […]. […] The quantification determination of antibiotic uptake was performed by multiple reaction monitoring (MRM) with negative electrospray ionization using the m/z 451 transition for tedizolid phosphate [Ong, V et al., Drug Metab. […]"}, "MRSA [3]": {"system": "MRSA", "assay": "Time-killing curves, tedizolid phosphate/lysozyme", "assay_type": "cell-based, Staphylococcus aureus", "settings": "tedizolid phosphate + 0.5 mg/ml lysozyme, after 22 hours; dropping from the level of 10^12", "method": "3) Time-killing curves. According to standard method [Sun. H et al., Nat. Commun. 11, 5263 (2020); Thappeta, K. R. V., Vikke. Y. S., Yong. A. M. H., Chan-Park. M. B. Kline, K. A. Combined efficacy of an antimicrobial cationic peptide polymer with conventional antibiotics to combat multidrug-resistant pathogens. ACS Infect. Dis. 6, 1229-1237 (2020)], over-night cultured MRSA was diluted and aliquoted into new sterile 50 ml tubes at 1:1000 ratio. Then, the bacterial suspension was co-cultured with 0.25 or 0.5 μg/ml tedizolid phosphate, 0.5 mg/ml lysozyme or their combination at 37° C. with shaking at 50 rpm. Similar bacterial suspension without any additions served as control group. To measure their real bacterial loads to draw their kinetic time-killing curves, 20 μl of each culture was extracted at time intervals of 0, 1, 3, 6, 9, 12 and 22 hours, and then 10 μl of each sample (10-fold serial dilution) was applied onto LB-agar plate and incubated at 37° C. for 24 hours. All assays were performed in triplicate."}, "MRSA [4]": {"system": "MRSA", "assay": "TMT proteomics analysis, tedizolid phosphate/lysozyme", "assay_type": "cell-based, Staphylococcus aureus"}, "[5]": {"settings": "combination therapy compared with lysozyme alone, 1 hour"}},
  "data": [
    {"smiles": "C=CC1=C(C(=O)O)N2C(=O)[C@@H](NC(=O)/C(=N\\O)c3csc(N)n3)[C@H]2SC1", "note": "[cefdinir, Cefdinir]", "values": [
      {"measurement": "safe concentration without any effect on cell survival ratios", "setting": "ARPE-19 cells", "value": "< 64", "unit": "µg/mL"},
      {"measurement": "bacterial load", "setting": "MRSA [1]", "value": "10^7 CFU/ml"}
    ]},
    {"smiles": "Cn1nnc(-c2ccc(-c3ccc(N4C[C@H](COP(=O)(O)O)OC4=O)cc3F)cn2)n1", "note": "[tedizolid phosphate, Tedizolid Phosphate]", "values": [
      {"measurement": "increase in the level of intracellular tedizolid phosphate", "setting": "MRSA [2]; after 4 hours, lysozyme (≤0.25 mg/ml) used in combination", "value": 10, "unit": "fold"},
      {"measurement": "intracellular accumulation of tedizolid phosphate", "setting": "MRSA [2]; combination therapy, 1 hour", "value": "ca. 100 μg/l"},
      {"measurement": "tedizolid phosphate alone needed to achieve the same intracellular accumulation", "setting": "MRSA [2]; tedizolid phosphate alone, 1 hour", "value": "≥ 4.5", "unit": "µg/mL"},
      {"measurement": "bacterial load per ml culture", "setting": "MRSA [3]", "value": "10^6 colony forming units (CFUs)"},
      {"measurement": "level of FtsA", "setting": "MRSA [4]; combination therapy", "value": 0.003, "unit": "fold"},
      {"measurement": "level of OatA (Q2FV54)", "setting": "MRSA [4]; combination therapy", "value": "significant increase"},
      {"measurement": "level of SepF", "setting": "MRSA [4]; combination therapy", "value": 0.5, "unit": "fold"},
      {"measurement": "expression of ornithine carbamoyltransferase (Q5HCR3)", "setting": "MRSA [4]; [5]", "value": 0.5, "unit": "fold"},
      {"measurement": "level of arginine deiminase (Q5HKU2)", "setting": "MRSA [4]; [5]", "value": 3.9, "unit": "fold"},
      {"measurement": "level of urease subunit alpha (A5IV71)", "setting": "MRSA [4]; [5]", "value": "1,5 fold"},
      {"measurement": "phosphoglycerate kinase (Q5HQV3) level", "setting": "MRSA [4]; combination therapy, 1 hour", "value": 0.005, "unit": "fold"},
      {"measurement": "probable malate:quinone oxidoreductase I (P65421) level", "setting": "MRSA [4]; combination therapy, 1 hour", "value": 0.12, "unit": "fold"}
    ]}
  ]
}
